Read-outs that look alike come from different tables or passages of the source.
Columns and labels:
clinical = details: human, in vivo
Method: All participants in the active group received a single 2,000-mg dose of both drugs on day 3 and q8h on days 4 to 8, with a final single dose of both drugs on the morning of day 9. A washout period of approximately 24 h between treatments was provided. Study treatments were administered as 30-min (SAD study) or 90-min (MAD study) i.v. infusions, the latter to investigate the pharmacokinetics using a longer infusion time, which is commonly used to increase the time above the MIC of β-lactams ([15]). The choice of a 90-min infusion time for the MAD study was dictated by the stability and toxicology data available at the time the study was being designed. […] Safety assessments included monitoring of AEs, laboratory safety tests (hematology, serum chemistry, and urinalysis), 12-lead ECG (discrete recordings and 24-h Holter recording), and vital signs (blood pressure, pulse rate, and body temperature). In the SAD study, safety assessments were performed predose at screening, at day 1, postdose periodically on days 1, 2, and 7 (follow-up), and at early withdrawal, if relevant. […] In the MAD study, safety assessments were done predose at screening, at day 2, postdose periodically on days 1, 2, 4, 7, and 8, on days 13 to 15 (follow-up), and at early withdrawal, if relevant. […] On all other days, a single predose sample was collected for pharmacokinetic evaluation prior to the morning infusion. Blood was collected into lithium-heparin tubes and stored at a nominal –80°C temperature until analysis.

[1] = design: method as in PMID 25813217, PMID 29914955, PMID 27527080, PMID 29437614; details: healthy individuals; cited from earlier work

C[C@@H](O)[C@H]1C(=O)N2C(C(=O)O)=C(S[C@@H]3CN[C@H](C(=O)N(C)C)C3)[C@H](C)[C@H]12 [meropenem]
Tmax (clinical): 1 h | clearance (clinical; CL): 253 mL/min | CL renal (clinical; CLr): 161 mL/min | Vd (clinical; Vdss): 19.8 L | half-life (clinical; t1/2): 1.3 h

NC(=O)[C@@H]1CC[C@@H]2CN1C(=O)N2OS(=O)(=O)O [avibactam]
half-life [1]: approximately 2 h

O=C(O)C[C@@H]1CC[C@H](NC(=O)Cc2cccs2)B(O)O1 [vaborbactam]
half-life [1]: approximately 2 h

O=C(NC1CCNCC1)[C@@H]1CC[C@@H]2CN1C(=O)N2OS(=O)(=O)O [relebactam]
half-life [1]: approximately 2 h
